According to ChEMBL document CHEMBL3885881, “DrugMatrix”:

Species on record: Rattus norvegicus
Experiment: DrugMatrix - Regimen: Daily Repeat
Format: toxicity, organism-based, Sprague-Dawley
Design: regimen Daily Repeat, gender Male, age 6-8 weeks
Conditions: in vivo, po, […], route oral GAVAGE, vehicle 100 % WATER; for ALANINE AMINOTRANSFERASE / ALBUMIN / ALKALINE PHOSPHATASE / ASPARTATE AMINOTRANSFERASE / BLOOD UREA NITROGEN / CARBON DIOXIDE / CHLORIDE / CHOLESTEROL / CREATINE PHOSPHOKINASE / CREATININE / GLUCOSE / LACTATE DEHYDROGENASE / LIPASE / PHOSPHORUS / POTASSIUM / SODIUM / TOTAL BILIRUBIN / TOTAL PROTEIN / URIC ACID: tissue Plasma; for ABSOLUTE BASOPHIL / ABSOLUTE EOSINOPHIL / ABSOLUTE LYMPHOCYTE / ABSOLUTE MONOCYTE / ABSOLUTE SEGMENTED NEUTROPHIL / BASOPHIL / EOSINOPHIL / ERYTHROCYTE COUNT / HEMATOCRIT / HEMOGLOBIN / LEUKOCYTE COUNT / LYMPHOCYTE / MEAN CORPUSCULAR HEMOGLOBIN / MEAN CORPUSCULAR HEMOGLOBIN CONCENTRATION / MEAN CORPUSCULAR VOLUME / MONOCYTE / NEUTROPHIL / NUCLEATED RED BLOOD CELLS / PLATELET COUNT: tissue Blood
[1] = 72 h, dose 0.025 mg/Kg, dose level Low, time 3 day
[2] = 72 h, dose 0.25 mg/Kg, dose level High, time 3 day
[3] = 120 h, dose 0.025 mg/Kg, dose level Low, time 5 day
[4] = 120 h, dose 0.25 mg/Kg, dose level High, time 5 day

C[C@@H]1C[C@@H]([C@H](O)CC2CC(=O)NC(=O)C2)C(=O)[C@@H](C)C1 [CYCLOHEXIMIDE]
ALANINE AMINOTRANSFERASE [1]: 59.67 u/L
ALBUMIN [1]: 4.1 G/DL
ALKALINE PHOSPHATASE [1]: 369.67 u/L
ASPARTATE AMINOTRANSFERASE [1]: 107.33 u/L
BLOOD UREA NITROGEN [1]: 15.67 mg/dL
CARBON DIOXIDE [1]: 31 mmol/L
CHLORIDE [1]: 102 MEQ/L
CHOLESTEROL [1]: 69 mg/dL
CREATINE PHOSPHOKINASE [1]: 1055 u/L
CREATININE [1]: 0.22 mg/dL
GLUCOSE [1]: 164 mg/dL
LACTATE DEHYDROGENASE [1]: 240.33 u/L
LIPASE [1]: 9 u/L
PHOSPHORUS [1]: 12.27 mg/dL
POTASSIUM [1]: 6.52 MEQ/L
SODIUM [1]: 142.17 MEQ/L
TOTAL BILIRUBIN [1]: 0.23 mg/dL
TOTAL PROTEIN [1]: 5.63 G/DL
URIC ACID [1]: 1.8 mg/dL
ALANINE AMINOTRANSFERASE [2]: 45 u/L
ALBUMIN [2]: 3.43 G/DL
ALKALINE PHOSPHATASE [2]: 376.67 u/L
ASPARTATE AMINOTRANSFERASE [2]: 77 u/L
BLOOD UREA NITROGEN [2]: 14.33 mg/dL
CARBON DIOXIDE [2]: 34.33 mmol/L
CHLORIDE [2]: 101.33 MEQ/L
CHOLESTEROL [2]: 48.67 mg/dL
CREATINE PHOSPHOKINASE [2]: 345.33 u/L
CREATININE [2]: 0.17 mg/dL
GLUCOSE [2]: 154.33 mg/dL
LACTATE DEHYDROGENASE [2]: 99 u/L
LIPASE [2]: 8 u/L
PHOSPHORUS [2]: 12.1 mg/dL
POTASSIUM [2]: 7.04 MEQ/L
SODIUM [2]: 141.27 MEQ/L
TOTAL BILIRUBIN [2]: 0.23 mg/dL
TOTAL PROTEIN [2]: 4.67 G/DL
URIC ACID [2]: 1.33 mg/dL
ABSOLUTE BASOPHIL [3]: 0 CELLS/uL
ABSOLUTE EOSINOPHIL [3]: 0 CELLS/uL
ABSOLUTE LYMPHOCYTE [3]: 7936.67 CELLS/uL
ABSOLUTE MONOCYTE [3]: 68.67 CELLS/uL
ABSOLUTE SEGMENTED NEUTROPHIL [3]: 628 CELLS/uL
BASOPHIL [3]: 0%
EOSINOPHIL [3]: 0%
ERYTHROCYTE COUNT [3]: 5.73 x10E6/uL
HEMATOCRIT [3]: 34.33%
HEMOGLOBIN [3]: 13.1 G/DL
LEUKOCYTE COUNT [3]: 8.63 x10E3/uL
LYMPHOCYTE [3]: 91.67%
MEAN CORPUSCULAR HEMOGLOBIN [3]: 22.9 pg
MEAN CORPUSCULAR HEMOGLOBIN CONCENTRATION [3]: 38.13 G/DL
MEAN CORPUSCULAR VOLUME [3]: 60.1 fL
MONOCYTE [3]: 1%
NEUTROPHIL [3]: 7.33%
NUCLEATED RED BLOOD CELLS [3]: 0 /100WBC
PLATELET COUNT [3]: 1317.33 x10E3/uL
ABSOLUTE BASOPHIL [4]: 0 CELLS/uL
ABSOLUTE EOSINOPHIL [4]: 26.67 CELLS/uL
ABSOLUTE LYMPHOCYTE [4]: 7410 CELLS/uL
ABSOLUTE MONOCYTE [4]: 139.67 CELLS/uL
ABSOLUTE SEGMENTED NEUTROPHIL [4]: 1057 CELLS/uL
BASOPHIL [4]: 0%
EOSINOPHIL [4]: 0.33%
ERYTHROCYTE COUNT [4]: 5.35 x10E6/uL
HEMATOCRIT [4]: 32.87%
HEMOGLOBIN [4]: 12.77 G/DL
LEUKOCYTE COUNT [4]: 8.63 x10E3/uL
LYMPHOCYTE [4]: 85%
MEAN CORPUSCULAR HEMOGLOBIN [4]: 23.83 pg
MEAN CORPUSCULAR HEMOGLOBIN CONCENTRATION [4]: 38.8 G/DL
MEAN CORPUSCULAR VOLUME [4]: 61.47 fL
MONOCYTE [4]: 1.67%
NEUTROPHIL [4]: 13%
NUCLEATED RED BLOOD CELLS [4]: 0 /100WBC
PLATELET COUNT [4]: 1213 x10E3/uL
ALANINE AMINOTRANSFERASE [3]: 45.33 u/L
ALBUMIN [3]: 4.03 G/DL
ALKALINE PHOSPHATASE [3]: 343 u/L
ASPARTATE AMINOTRANSFERASE [3]: 78 u/L
BLOOD UREA NITROGEN [3]: 15.33 mg/dL
CARBON DIOXIDE [3]: 33.33 mmol/L
CHLORIDE [3]: 102.33 MEQ/L
CHOLESTEROL [3]: 68.67 mg/dL
CREATINE PHOSPHOKINASE [3]: 249.67 u/L
CREATININE [3]: 0.16 mg/dL
GLUCOSE [3]: 141 mg/dL
LACTATE DEHYDROGENASE [3]: 124.33 u/L
LIPASE [3]: 9 u/L
PHOSPHORUS [3]: 11.4 mg/dL
POTASSIUM [3]: 5.87 MEQ/L
SODIUM [3]: 146.43 MEQ/L
TOTAL BILIRUBIN [3]: 0.1 mg/dL
TOTAL PROTEIN [3]: 5.83 G/DL
URIC ACID [3]: 0.73 mg/dL
ALANINE AMINOTRANSFERASE [4]: 54.67 u/L
ALBUMIN [4]: 3.6 G/DL
ALKALINE PHOSPHATASE [4]: 291.33 u/L
ASPARTATE AMINOTRANSFERASE [4]: 78 u/L
BLOOD UREA NITROGEN [4]: 16 mg/dL
CARBON DIOXIDE [4]: 35.33 mmol/L
CHLORIDE [4]: 101.5 MEQ/L
CHOLESTEROL [4]: 65 mg/dL
CREATINE PHOSPHOKINASE [4]: 253.67 u/L
CREATININE [4]: 0.15 mg/dL
GLUCOSE [4]: 135 mg/dL
LACTATE DEHYDROGENASE [4]: 109 u/L
LIPASE [4]: 9 u/L
PHOSPHORUS [4]: 11.9 mg/dL
POTASSIUM [4]: 6.52 MEQ/L
SODIUM [4]: 143.55 MEQ/L
TOTAL BILIRUBIN [4]: 0.1 mg/dL
TOTAL PROTEIN [4]: 5.03 G/DL
URIC ACID [4]: 0.73 mg/dL
